How the values were obtained:
[1] = system: Candida albicans, Trichophyton spp., Epidermophyton spp., and Aspergillus spp.; settings: cited from earlier work
[2] = in vivo; cited from earlier work
[3] = in vivo; cited from earlier work; remark: listed apart in the source
[4] = system: MMP-3 (stromelysin); test: IL-1 induced MMP-3 (stromelysin) mRNA expression in chondrocytes, Northern blot; type: cell-based
Experimental: (§1) Cells were treated with paclitaxel at various concentrations (10^−7 to 10^−5 M) for 24 hours, then treated with IL-1β (20 ng/ml) for additional 18 hours in the presence of paclitaxel. Total RNA was isolated, and the MMP-1 mRNA levels were determined by Northern blot analysis. The blots were subsequently stripped and reprobed with ^32P-radiolabeled rat GAPDH cDNA, which was used as a housekeeping gene. […] Quantitation of collagenase-1 and stromelysin-expression mRNA levels were conducted. The MMP-1 and MMP-3 expression levels were normalized with GAPDH.

[5] = system: MMP-1 (collagenase-1); test: IL-1 induced MMP-1 (collagenase) mRNA expression in chondrocytes, Northern blot; type: cell-based
Experimental: as §1

[6] = system: collagenase and stromelysin; test: IL-1 induced collagenase and stromelysin RNA levels in chondrocytes (FIG. 4, 5); type: cell-based; settings: pretreatment
[7] = system: AP-1; test: IL-1 induced AP-1 binding activity in chondrocyte lysates (FIG. 3); type: cell-based; settings: lysates from chondrocytes pretreated with paclitaxel
[8] = system: AP-1; test: IL-1 induced AP-1 DNA binding activity, gel mobility shift assay with chondrocyte extracts; type: cell-based; settings: chondrocytes pretreated with paclitaxel 10^−7 to 10^−5 M for 24 hours
Experimental: Binding activity was assayed with a radiolabeled human AP-1 sequence probe and gel mobility shift assay. Extracts from chondrocytes untreated or treated with various amounts of paclitaxel (10^−7to 10^−5 M) followed by IL-1β (20 ng/ml) were incubated with excess probe on ice for 30 minutes, followed by non-denaturing gel electrophoresis. The “com” lane contains excess unlabeled AP-1 oligonucleotide. The results shown are representative of three independent experiments.

[9] = system: ACL injured guinea pig knees (osteoarthritis); test: Inhibition of cartilage damage in the ACL injured Hartley guinea pig model of osteoarthritis; type: in vivo, Hartley guinea pigs; settings: hyaluronic acid formulation; low dose (dose 1) and medium dose (dose 2); 5 weekly intra-articular injections; ten weeks after injury
From the text: The skin on the right knee was sterilized. A 20G needle was introduced in the knee joint using a medial approach and the anterior cruciate ligament was cut with the sharp end of the needle.
Two weeks after the initial procedure, the animals were anesthetized with isoflurane (5% induction −2% maintenance) and weighed. […] The skin of the injured knee was sterilised. […] Injections were repeated weekly for a total of 5 injections. Sample size was N=12 for each formulation. Two doses of paclitaxel and control formulation were tested.
A final knee measurement was taken. The skin over the knee area was removed without damaging subcutaneous tissues. The knee joints were then harvested en bloc and placed into a formaldehyde (37%)/acetic acid solution (5:1 ratio) for fixation. Samples were sent to an independent laboratory for the conduct of histological preparation of joints and assessment by a pathologist for signs of cartilage damage.
Briefly knee sections were made to examine cartilage and slides were stained with H&E stain. […] Bar graphs were constructed from each group and compared.

[10] = system: AP-1; test: IL-1 stimulated AP-1 transcriptional activity (AP-1 driven CAT reporter gene) in transfected chondrocytes; type: cell-based; settings: paclitaxel 10^−7 to 10^−5 M, concentration dependent; IL-1 50 ng/ml, 24 hours
Experimental: Chondrocytes were transfected with constructs containing an AP-1 driven CAT reporter gene, and stimulated with IL-1, IL-1 (50 ng/ml) was added and incubated for 24 hours in the absence and presence of paclitaxel at various concentrations. […] The data noted with an asterisk (*) have significance compared with IL-1-induced CAT activity according to a t-test, P<0.05. The results shown are representative of three independent experiments.

[11] = system: knee joint (synovial cavity); test: Maximum tolerated dose (MTD) of a drug after intra-articular injection; settings: for MTD (dose for which knee inflammation was not observed): 0.1 mL intra-articular
Experimental: Male Hartley guinea pigs, at least 6 weeks old, were anaesthetized using 5% isoflurane in an enclosed chamber. The animals were weighed and then transferred to the surgical table where anesthesia was maintained by nose cone with 2% isoflurane. The knee area on both legs was shaved and knee width at the head of the femur was measured on both knees. The skin on the right knee was sterilized. A 25G needle was introduced into the synovial cavity using a medial approach and 0.1 mL of the test formulation was injected. Three or seven days after the injection, the animals were sacrificed by cardiac injection of 0.7 mL Euthanyl under deep anesthesia (5% isoflurane). Sample size was N=3 for each formulation.
Knee function was assessed before sacrifice by recording changes in walking behavior and signs of tenderness. The animal was weighed immediately after sacrifice. The width of both knees at the head of the femur was then measured with calipers. The knee joint was dissected open by transecting the quadriceps tendon, cutting through the lateral and medial articular capsule and flipping the patella over the tibia. Knee inflammation was assessed by recording signs of swelling, vascularization, fluid accumulation and change in color in subcutaneous tissue as well as inner joint structures. Photographs were taken to document findings. All data was recorded by observers blinded to the treatment groups.

[12] = system: cartilage; test: Hartley guinea pig knees with ACL damage, joint and cartilage score (FIG. 7, 8); type: in vivo
[13] = system: Chick Chorioallantoic Membrane (CAM); test: Chick chorioallantoic membrane (CAM) angiogenesis assay; type: in vivo; settings: for Inhibition/n: 48 hours exposure
Experimental: Fertilized, domestic chick embryos were incubated for 3 days prior to shell-less culturing. In this procedure, the egg contents were emptied by removing the shell located around the air space. The interior shell membrane was then severed and the opposite end of the shell was perforated to allow the contents of the egg to gently slide out from the blunted end. The egg contents were emptied into round-bottom sterilized glass bowls and covered with petri dish covers. These were then placed into an incubator at 90% relative humidity and 3% CO2 and incubated for 3 days.
Paclitaxel (Sigma, St. Louis, […].) was mixed at concentrations of 0.25, 0.5, 1, 5, 10, 30 μg per 10 ul aliquot of 0.5% aqueous methylcellulose. […] Ten microliter aliquots of this solution were dried on parafilm for 1 hour forming disks 2 mm in diameter. The dried disks containing paclitaxel were then carefully placed at the growing edge of each CAM at day 6 of incubation. Controls were obtained by placing paclitaxel-free methylcellulose disks on the CAMs over the same time course. After a 2 day exposure (day 8 of incubation) the vasculature was examined with the aid of a stereomicroscope. Liposyn II, a white opaque solution, was injected into the CAM to increase the visibility of the vascular details. The vasculature of unstained, living embryos were imaged using a Zeiss stereomicroscope which was interfaced with a video camera (Dage-MTI Inc., Michigan City, Ind.). […] Image negatives were then made on a graphics recorder (Model 3000; Matrix Instruments, Orangeburg, N.Y.).
The membranes of the 8 day-old shell-less embryo were flooded with 2% glutaraldehyde in 0.1 M sodium cacodylate buffer; additional fixative was injected under the CAM. After 10 minutes in situ, the CAM was removed and placed into fresh fixative for 2 hours at room temperature. The tissue was then washed overnight in cacodylate buffer containing 6% sucrose. The areas of interest were postfixed in 1% osmium tetroxide for 1.5 hours at 4° C. The tissues were then dehydrated in a graded series of ethanols, solvent exchanged with propylene oxide, and embedded in Spurr resin. Thin sections were cut with a diamond knife, placed on copper grids, stained, and examined in a Joel 1200EX electron microscope. Similarly, […] sections were cut and stained with […] for light microscopy.
At day 11 of development, chick embryos were used for the corrosion casting technique. Mercox resin (Ted Pella, Inc., Redding, Calif.) was injected into the CAM vasculature using a 30-gauge hypodermic needle. […] After injection, the plastic was allowed to sit in situ for an hour at room temperature and then overnight in an oven at 65° C. The CAM was then placed in 50% aqueous solution of sodium hydroxide to digest all organic components. The plastic casts were washed extensively in distilled water, air-dried, coated with gold/palladium, and viewed with the Philips 501B scanning electron microscope.
After 48 hours exposure to paclitaxel at concentrations of 0.25, 0.5, 1, 5, 10, or 30 μg, each CAM was examined under living conditions with a stereomicroscope equipped with a video/computer interface in order to evaluate the effects on angiogenesis. This imaging setup was used at a magnification of 160× which permitted the direct visualization of blood cells within the capillaries; thereby blood flow in areas of interest may be easily assessed and recorded. For this study, the inhibition of angiogenesis was defined as an area of the CAM (measuring 2-6 mm in diameter) lacking a capillary network and vascular blood flow. Throughout the experiments, avascular zones were assessed on a 4 point avascular gradient (see the table below). This scale represents the degree of overall inhibition with maximal inhibition represented as a 3 on the avascular gradient scale. Paclitaxel was very consistent and induced a maximal avascular zone (6 mm in diameter or a 3 on the avascular gradient scale) within 48 hours depending on its concentration. […]

[14] = system: endo-exonuclease; settings: PCT Publication No. WO 01/35935; cited from earlier work
[15] = system: phosphatases of regenerating liver (PRL); settings: cited from earlier work
[16] = target: protein tyrosine phosphatase 1B (PTP1B) (Homo sapiens, UniProt P18031); settings: cited from earlier work
protein tyrosine phosphatase 1B (PTP1B), sequence (P18031 whole entry): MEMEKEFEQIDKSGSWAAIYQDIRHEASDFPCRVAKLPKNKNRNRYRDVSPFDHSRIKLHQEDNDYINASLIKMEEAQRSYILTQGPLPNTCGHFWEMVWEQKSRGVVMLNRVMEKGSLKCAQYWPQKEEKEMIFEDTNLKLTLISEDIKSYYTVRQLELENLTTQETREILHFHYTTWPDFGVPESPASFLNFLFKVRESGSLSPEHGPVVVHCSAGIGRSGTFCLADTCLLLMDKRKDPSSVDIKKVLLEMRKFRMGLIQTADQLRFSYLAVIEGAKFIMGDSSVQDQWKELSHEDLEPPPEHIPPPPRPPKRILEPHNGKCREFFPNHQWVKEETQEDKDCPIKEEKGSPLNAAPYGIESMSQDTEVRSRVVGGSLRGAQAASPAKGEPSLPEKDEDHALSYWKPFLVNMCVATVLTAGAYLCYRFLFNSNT

[17] = system: Candida spp., Aspergillus spp., Sporothrix schenckii, Penicillium marneffei, Malassezia furfur, Cryptococcus neoformans, Trichosporon spp. and …; settings: against most of the listed species; cited from earlier work
[18] = 10^−5 M paclitaxel, pretreatment 24 hours

For Cc1cc(C2CCCCC2)n(O)c(=O)c1 [Ciclopirox, ciclopirox], the antifungal activity [1] is listed as “fungistatic and fungicidal”.

For CN(C)/N=N/c1[nH]cnc1C(N)=O [Dacarbazine, dacarbazine], the “absorption from the GI tract” value [2] is given as “poorly absorbed”.

For O=C(Nc1ccc([N+](=O)[O-])cc1Cl)c1cc(Cl)ccc1O [Niclosamide, niclosamide], the toxicity in mammals [3] is listed as “very low toxicity”.

For CC(=O)O[C@H]1C(=O)[C@@]2(C)[C@H]([C@H](OC(=O)c3ccccc3)[C@]3(O)C[C@H](OC(=O)[C@H](O)[C@@H](NC(=O)c4ccccc4)c4ccccc4)C(C)=C1C3(C)C)[C@]1(OC(C)=O)CO[C@@H]1C[C@@H]2O [paclitaxel], the “IL-1 induced stromelysin mRNA levels” value [4, 18] was “complete inhibition”, the “concentration capable of inhibiting stromelysin expression in vitro” value ([4]; chondrocytes) was 10^−6 M and the “IL-1 induced collagenase mRNA levels” value [5, 18] was “complete inhibition”. The “concentration capable of inhibiting collagenase expression in vitro” value ([5]; chondrocytes) was 10^−6 M, the “IL-1 induction of collagenase and stromelysin RNA levels” value [6] was “can be inhibited” and the “IL-1 induced binding activity” value [7] was “decreased”. For the same compound, the “IL-1 induced AP-1 binding to oligonucleotides” value [8] was “IL-1 induced binding activity decreased”, the “cartilage damage (pathologist score)” value [9] was “statistical reduction in cartilage damage relative to control” and the “IL-1 induced AP-1 reporter gene CAT activity” value [10] was “reduced IL-1 induced AP-1 reporter gene CAT activity”. For the same compound, the “MTD (dose for which knee inflammation was not observed)” value ([11]; co-solvent formulation, 3 day evaluation) was 1.5 mg/mL, the “MTD (dose for which knee inflammation was not observed)” value ([11]; triblock gel formulation according to Example 34, evaluation at 7 days) was 0.075 mg/mL and the tolerated doses ([11]; triblock gel formulation, evaluation after three days) was “up to 0.15 mg/ml”. For the same compound, the “average rank of joint scores, dose response trend” value ([12]; Hartley guinea pig knees with ACL damage, p<0.02) was “statistically significant”, the “cartilage in knee cross section” value ([12]; dose 1 (low dose)) was “fraying of cartilage” and the “cartilage in knee cross section” value ([12]; dose 2 (medium dose)) was “minor defects to cartilage”. The Inhibition/n ([13]; 0.25 ug in methylcellulose (10 ul)) was 2/11, the Inhibition/n ([13]; 0.5 ug in methylcellulose (10 ul)) was 6/11 and the Inhibition/n ([13]; 1 ug in methylcellulose (10 ul)) was 6/15. The Inhibition/n ([13]; 5 ug in methylcellulose (10 ul)) was 20/27, the Inhibition/n ([13]; 10 ug in methylcellulose (10 ul)) was 16/21 and the Inhibition/n ([13]; 30 ug in methylcellulose (10 ul)) was 31/31. The “maximal avascular zone on the avascular gradient scale” value ([13]; within 48 hours depending on concentration) was 3.

For N=C(N)c1ccc(OCCCCCOc2ccc(C(=N)N)cc2)cc1 [pentamidine], the “inhibition of the activity of endo-exonuclease” value [14] is given as “inhibit the activity”, the “inhibition of oncogenic phosphatases of regenerating liver” value [15] is given as “potent inhibitor” and the “inhibition of PTP1B” value [16] is given as “effective inhibitor”.

In the case of CN(C/C=C/C#CC(C)(C)C)Cc1cccc2ccccc12.Cl [terbinafine, terbinafine hydrochloride], the “in vitro antifungal activity” value [17] is listed as “has activity”.

Reference: patent US20070299043A1, “Anti-scarring drug combinations and use thereof” (priority 2005, published 2007)
